Our source for the Ki values is US20050261332A1, “Sulfonamides and uses thereof” (priority 2004, published 2005).

The test deals with T1, GHS-R (Homo sapiens, UniProt Q92847).
T1 construct: expressed in transfected cells; host or cells: COS-7 cells
T1 sequence (Q92847 whole entry, species assumed): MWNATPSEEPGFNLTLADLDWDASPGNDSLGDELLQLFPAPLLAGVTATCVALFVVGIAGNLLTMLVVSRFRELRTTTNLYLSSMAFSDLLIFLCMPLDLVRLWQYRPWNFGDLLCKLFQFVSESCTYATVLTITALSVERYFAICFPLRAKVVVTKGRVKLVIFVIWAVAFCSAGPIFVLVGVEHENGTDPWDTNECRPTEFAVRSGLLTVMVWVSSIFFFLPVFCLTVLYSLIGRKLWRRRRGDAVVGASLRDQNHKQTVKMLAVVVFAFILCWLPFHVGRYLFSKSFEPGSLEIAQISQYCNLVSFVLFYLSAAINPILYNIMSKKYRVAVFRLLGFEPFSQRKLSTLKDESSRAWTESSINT
Description: GHS-R competition binding assay (Ki of GHS-R antagonizing compounds). The procedure: One exemplary binding assay is as follows: GHS-R expressing COS-7 cells cultured at a density of 1×10^5 cells per well so that binding is assayed in the range of about 5-8 % binding of the radioactive ligand. For example, the cells can express an endogenous nucleic acid encoding GHS-R or an exogenous nucleic acid encoding GHS-R. Cells transfected with an exogenous nucleic acid encoding GHS-R can be used, e.g., two days, after transfection. Competition binding experiments are performed for 3 hours at 4° C. using 25 pM of ^125I-ghrelin in 0.5 ml of 50 mM HEPES buffer, pH 7.4, supplemented with 1 mM CaCl2, 5 mM MgCl2, and 0.1% (w/v) bovine serum albumin, 40 mg/ml bacitracin. Non-specific binding can be determined as the binding in the presence of […] of unlabeled ghrelin. Cells are washed twice in 0.5 ml of ice-cold buffer and then lysed with 0.5-1 ml of lysis buffer (8 M Urea, 2% NP40 in 3 M acetic acid). After washing and lysis, the bound radioactivity is counted. Assays can be run in duplicate or triplicate, e.g., to provide statistical power.
Values of the dissociation and inhibition constants (Kd and Ki) can be estimated from competition binding experiments using the equation: Kd=IC50-L and Ki=IC50/(1+L/Kd), where L is the concentration of radioactive ligand. Bmax values can be estimated from competition binding experiments using the equation Bmax=B0 IC50/[ligand], where B0 is the specifically bound radioligand.
For orientation: Ki means the equilibrium dissociation constant of an inhibitor or competing ligand from its target. A higher Ki goes with a looser hold on the target. For the compound `CCN(CC)CCCS(=O)(=O)N[C@H](CCc1ccccc1)C(=O)c1ccc(-c2ccccc2N)cc1` [Compound 169], the Ki was under 100 nM.
The result for “(R)-N-(3-(benzyloxy)-1-(1-(methylsulfonyl)spiro[indoline-3,4′-piperidine]-1′-yl)-1-oxopropan-2-yl)-3-isosulfonylazolidine [Compound 151]” reads 100 to 1000 nM; that for `CS(=O)(=O)N1CC2(CCN(C(=O)[C@@H](COCc3ccccc3)NS(=O)(=O)CCCNC3CC3)CC2)c2ccccc21` [Compound 150, (R)-N-(3-(benzyloxy)-1-(1-(methylsulfonyl)spiro[indoline-3,4′-piperidine]-1′-yl)-1-oxopropan-2-yl)-3-(cyclopropylamino)propane-1-sulfonamide], over 1000 nM; that for `CCN(CC)CCS(=O)(=O)N[C@H](CCc1ccccc1)C(=O)c1ccc(-c2ccccc2CN)cc1` [Compound 203, (R)-N-(1-(2′-(aminomethyl)biphenyl-4-yl)-1-oxo-4-phenylbutan-2-yl)-2-(diethylamino)ethanesulfonamide], 100 to 1000 nM.
The compound `CCN(CC)CCCS(=O)(=O)N[C@H](CCc1ccccc1)C(=O)NCc1ccc(-c2ccccc2CN)cc1` [Compound 180, (R)-N-((2′-(aminomethyl)biphenyl-4-yl)methyl)-2-(3-(diethylamino)propylsulfonamido)-4-phenylbutanamide] showed an inhibition constant (Ki) of 100 to 1000 nM.
The result for `CCN(CC)CCCS(=O)(=O)N[C@H](CCc1ccccc1)C(=O)NCc1ccc(-c2ccccc2C(N)=O)cc1` [Compound 189, (R)-4′-{[2-(3-Diethylamino-propane-1-sulfonylamino)-4-phenyl-butyrylamino]-methyl}-biphenyl-2-carboxylic acid amide] reads under 100 nM; that for `CCN(CC)CCCS(=O)(=O)N[C@H](CCc1ccccc1)C(=O)NCc1ccc(-c2ccccc2CNC(C)=O)cc1` [Compound 170, (R)-N-((2′-(acetamidomethyl)biphenyl-4-yl)methyl)-2-(3-(diethylamino)propylsulfonamido)-4-phenylbutanamide], 100 to 1000 nM; that for `CCNC(=O)NCc1ccccc1-c1ccc(C(=O)[C@@H](CCc2ccccc2)NS(=O)(=O)CCCN(CC)CC)cc1` [Compound 197, (R)-3-(diethylamino)-N-(1-(2′-((3-ethylureido)methyl)biphenyl-4-yl)-1-oxo-4-phenylbutan-2-yl)propane-1-sulfonamide], under 100 nM.
The result for `CCN(CC)CCCS(=O)(=O)N[C@H](CCc1ccccc1)C(=O)c1ccc(-c2ccccc2C(=O)O)cc1` [Compound 183, (R)-4′-(2-(3-(diethylamino)propylsulfonamido)-4-phenylbutanoyl)biphenyl-2-carboxylic acid] reads 100 to 1000 nM.
The result for `CC(C)N(C)CCS(=O)(=O)N[C@H](COCc1ccccc1)C(=O)N1CCC2(CC1)CN(S(C)(=O)=O)c1ccccc12` [Compound 131, (R)-N-(3-(benzyloxy)-1-(1-(methylsulfonyl)spiro[indoline-3,4′-piperidine]-1′-yl)-1-oxopropan-2-yl)-2-(isopropyl(methyl)amino)ethanesulfonamide] reads 100 to 1000 nM.
In turn, `CCN(CC)CCCS(=O)(=O)N[C@H](CCc1ccccc1)C(=O)NCc1ccc(-c2ccccc2CC(=O)NC)cc1` [Compound 181, (R)-2-(3-(diethylamino)propylsulfonamido)-N-((2′-(2-(methylamino)-2-oxoethyl)biphenyl-4-yl)methyl)-4-phenylbutanamide] gave a Ki of 100 to 1000 nM.
The result for `CN1C2CCC1CC(S(=O)(=O)N[C@H](COCc1ccccc1)C(=O)N1CCC3(CC1)CN(S(C)(=O)=O)c1ccccc13)C2` (stereo partly drawn) [Compound 145, N-((R)-3-(benzyloxy)-1-(1-(methylsulfonyl)spiro[indoline-3,4′-piperidine]-1′-yl)-1-oxopropan-2-yl)-8-methyl-8-azabicyclo[3.2.1]octane-3-sulfonamide] reads over 1000 nM.
The result for `CCN(CC)CCCS(=O)(=O)N[C@H](CCc1ccccc1)C(=O)NCc1ccc(-c2ccccc2CNC(=O)NC)cc1` [Compound 187, (R)-2-(3-(diethylamino)propylsulfonamido)-N-((2′-((3-methylureido)methyl)biphenyl-4-yl)methyl)-4-phenylbutanamide] reads 100 to 1000 nM; that for `CCN(CC)CCCS(=O)(=O)N[C@H](CCc1ccccc1)C(=O)c1ccc(-c2ccccc2CNC(=O)NC)cc1` [Compound 196, (R)-3-(diethylamino)-N-(1-(2′-((3-methylureido)methyl)biphenyl-4-yl)-1-oxo-4-phenylbutan-2-yl)propane-1-sulfonamide], under 100 nM.
Compound `CCN(CC)CCS(=O)(=O)N[C@@H](COCc1ccccc1)C(=O)N1CCC2(CC1)CN(S(C)(=O)=O)c1ccccc12` [Compound 199, (S)-N-(3-(benzyloxy)-1-(1-(methylsulfonyl)spiro[indoline-3,4′-piperidine]-1′-yl)-1-oxopropan-2-yl)-2-(diethylamino)ethanesulfonamide] displayed a Ki of under 100 nM.
The result for `CCN(CC)CCCS(=O)(=O)N[C@H](COCc1ccccc1)C(=O)NCc1ccc(-c2ccccc2-c2noc(=O)[nH]2)cc1` [Compound 164, (R)-3-Benzyloxy-2-(3-diethylamino-propane-1-sulfonylamino)-N-[2′-(5-oxo-4,5-dihydro-[1,2,4]oxadiazol-3-yl)-biphenyl-4-ylmethyl]-propionamide] reads 100 to 1000 nM.
Consider `CCN(CC)CCCS(=O)(=O)N[C@H](CCc1ccccc1)C(=O)NCc1ccc(-c2ccccc2CO)cc1` [Compound 207, (R)-2-(3-(diethylamino)propylsulfonamido)-N-((2′-(hydroxymethyl)biphenyl-4-yl)methyl)-4-phenylbutanamide], for which the inhibition constant (Ki) is under 100 nM.
The result for `CCN(CC)CCCS(=O)(=O)N(C)[C@H](COCc1ccccc1)C(=O)N1CCC2(CC1)CN(S(C)(=O)=O)c1ccccc12` [Compound 160, (R)-N-(3-(benzyloxy)-1-(1-(methylsulfonyl)spiro[indoline-3,4′-piperidine]-1′-yl)-1-oxopropan-2-yl)-3-(diethylamino)-N-methylpropane-1-sulfonamide] reads under 100 nM.
The result for `CS(=O)(=O)N1CC2(CCN(C(=O)[C@@H](COCc3ccccc3)NS(=O)(=O)CCN3CCOCC3)CC2)c2ccccc21` [Compound 138, (R)-N-(3-(benzyloxy)-1-(1-(methylsulfonyl)spiro[indoline-3,4′-piperidine]-1′-yl)-1-oxopropan-2-yl)-2-morpholinoethanesulfonamide] reads over 1000 nM; that for `CCN(CC)CCS(=O)(=O)N[C@H](CCc1ccccc1)C(=O)c1ccc(-c2ccccc2CCNC(=O)NC)cc1` [Compound 212, (R)-2-(diethylamino)-N-(1-(2′-(2-(3-methylureido)ethyl)biphenyl-4-yl)-1-oxo-4-phenylbutan-2-yl)ethanesulfonamide], under 100 nM; that for `CCN(CC)CCCS(=O)(=O)N[C@H](COCc1ccccc1)C(=O)NCc1ccc(-c2ccccc2CN)cc1` [Compound 213, (R)-N-(2′-Aminomethyl-biphenyl-4-ylmethyl)-3-benzyloxy-2-(3-diethylamino-propane-1-sulfonylamino)-propionamide], 100 to 1000 nM.
